Earlier results in US10603302B2, “Water soluble flavonoids” (priority 2017, dated 2020).

Details: background statement

O=C1c2c(O)cc(O)cc2OC(c2ccc(O)c(O)c2)C1O (stereo not shown) [Taxifolin, 5,7,31,41-tetrahydroxyflavanol,dihydroquercetin]
solubility in water: slightly soluble in water
